ChEMBL document CHEMBL1150708, “Isolation and bioactivity of new tanshinones” (1987)

Legend:
Format in all cases: functional
[1] = Antiplatelet activity against platelet assessed as inhibition of ADP-induced platelet aggregation at 50 ug/ml by turbidimetry
[2] = Antiplatelet activity against platelet assessed as inhibition of collagen-induced platelet aggregation at 50 ug/ml by turbidimetry
[3] = Antiplatelet activity against platelet assessed as inhibition of collagen-induced platelet aggregation at 10 ug/ml by turbidimetry
[4] = Antiplatelet activity against platelet assessed as inhibition of collagen-induced platelet aggregation at 5 ug/ml by turbidimetry
[5] = Antiplatelet activity against platelet assessed as inhibition of ADP-induced platelet aggregation at 10 ug/ml by turbidimetry

SMILES | inhibition at 50 µg/mL [1] | inhibition at 50 µg/mL [2] | inhibition at 10 µg/mL [3] | inhibition at 5 µg/mL [4] | inhibition at 10 µg/mL [5]
CC(=O)Oc1ccccc1C(=O)O [ASPIRIN] | 74% | 72% |  |  | 
Cc1coc2c1C(=O)c1ccc3c(c1C2=O)CCCC3(C)CO (stereo not given) [ISOTANSHINONE IIB] |  |  | 81% | 4% | 40%
